Results: US9179694B2, “Method and composition for enhancing milk production and milk component concentrations” (PURINA ANIMAL NUTRITION LLC, priority 2003, dated 2015)
Marks after values point to notes of the source that are not given here.

Assay: Non-esterified fatty acid (NEFA) concentration in blood in sorbitol feeding trials
Type: in vivo, Holstein cows
Conditions: for lower concentration of NEFA in the blood: at about the time of giving birth
Procedure: To determine the weight percent of non-esterified fatty acid NEFA, wet basis, in a sample of blood, the blood sample is analyzed by an enzymatic colorimetric method (ACS-ACOD) using the NEFA C diagnostic kit (WAKO Chemicals USA, Richmond, Va.) in combination with an Hitachi 704 Automated Chemistry Analyzer (Hitachi Ltd., Tokyo, Japan). The enzymatic colorimetric method utilizes acyl-CoA synthethase (ACS) and acyl-CoA oxidase (ACOD) to produce a substance that may be measured colorimetrically. The NEFA analysis is conducted in accordance with the NEFA C ACS-ACOD Method instructions that WAKO Chemicals USA provides along with the NEFA C diagnostic kit.
Each cow of each of the six different trials (Control Trial #1, Control Trial #2, Pre-Partum Trial #1, Pre-Partum Trial #2, Pre/Post Trial #1, and Pre/Post Trial #2) was milked three times daily and the weight of produced milk by each cow was recorded at each milking. The milk from each cow was sampled once per week (⅓ of the sample volume from each of the three milkings occurring on the weekly milk sampling day) and was analyzed for true protein, total fat, lactose, and total solids, as detailed in the property determination and characterization techniques presented above. Additionally, samples of blood were periodically obtained from each cow during the four trials (Control Trial 2, Pre-Partum Trial #2, Pre/Post Trial #1, and Pre/Post Trial #2) encompassed in Example Two and were analyzed for non-esterified fatty acid (NEFA) content as detailed in the property determination and characterization techniques presented above. No NEFA analysis was conducted on the cows employed in Control Trial #1 or Pre-Partum Trial #1 that are the subject of Example One.
Example Two includes Control Trial #2, Pre-Partum Trial #2, Pre/Post Trial #1, and Pre/Post Trial #2. Only multiparious, Holstein cows were included in Control Trial #2, Pre-Partum Trial #1, Pre/Post Trial #1, and Pre/Post Trial #2. Eighteen multiparious cows were included in both Control Trial #2 and Pre-Partum Trial #2, while sixteen multiparious cows were included in Pre/Post Trial #1 and seventeen multiparious cows were included in Pre/Post Trial #2.

With `OC[C@@H](O)[C@@H](O)[C@H](O)[C@@H](O)CO` [sorbitol] as the compound, how does the “Non-Esterified Fatty Acid (NEFA) Concentration in Blood” value (“Non-Esterified Fatty Acid” for short) (Pre-Partum Trial #2 (75/0/100 g/day in wk −3..−1/+1..+4/+5..+8), multiparious cows, day 0 (Calving)) read?
The value was 0.470^ab mEq/l.

What about the “Non-Esterified Fatty Acid” value (Pre-Partum Trial #2 (75/0/100 g/day in wk −3..−1/+1..+4/+5..+8), multiparious cows, day +10) of the same compound?
The value was 0.372 mEq/l.

What about the “Non-Esterified Fatty Acid” value (Pre-Partum Trial #2 (75/0/100 g/day in wk −3..−1/+1..+4/+5..+8), multiparious cows, day −7) of the same compound?
Its value is 0.122 mEq/l.

And the “Non-Esterified Fatty Acid” value (Pre-Partum Trial #2 (75/0/100 g/day in wk −3..−1/+1..+4/+5..+8), multiparious cows, day −21)?
Its value is 0.103 mEq/l.

And the “Non-Esterified Fatty Acid” value (Pre/Post Trial #1 (150/125/100 g/day in wk −3..−1/+1..+4/+5..+8), multiparious cows, day 0 (Calving))?
Its value is 0.416^a mEq/l.

What about the “Non-Esterified Fatty Acid” value (Pre/Post Trial #1 (150/125/100 g/day in wk −3..−1/+1..+4/+5..+8), multiparious cows, day 0 (Calving), two-trial comparison with Control Trial #2 (Table 27)) of the same compound?
Its value is 0.416^b mEq/l.

What about the “Non-Esterified Fatty Acid” value (Pre/Post Trial #1 (150/125/100 g/day in wk −3..−1/+1..+4/+5..+8), multiparious cows, day +10) of the same compound?
Its value is 0.476 mEq/l.

And the “Non-Esterified Fatty Acid” value (Pre/Post Trial #1 (150/125/100 g/day in wk −3..−1/+1..+4/+5..+8), multiparious cows, day +10, two-trial comparison with Control Trial #2 (Table 27))?
The value was 0.476 mEq/l.

What about the “Non-Esterified Fatty Acid” value (Pre/Post Trial #1 (150/125/100 g/day in wk −3..−1/+1..+4/+5..+8), multiparious cows, day −7) of the same compound?
Its value is 0.107 mEq/l.

What about the “Non-Esterified Fatty Acid” value (Pre/Post Trial #1 (150/125/100 g/day in wk −3..−1/+1..+4/+5..+8), multiparious cows, day −7, two-trial comparison with Control Trial #2 (Table 27)) of the same compound?
Its value is 0.107 mEq/l.

What about the “Non-Esterified Fatty Acid” value (Pre/Post Trial #1 (150/125/100 g/day in wk −3..−1/+1..+4/+5..+8), multiparious cows, day −21) of the same compound?
Its value is 0.141 mEq/l.

What about the “Non-Esterified Fatty Acid” value (Pre/Post Trial #1 (150/125/100 g/day in wk −3..−1/+1..+4/+5..+8), multiparious cows, day −21, two-trial comparison with Control Trial #2 (Table 27)) of the same compound?
Its value is 0.141 mEq/l.

And the “lower NEFA concentrations in blood” value (Pre/Post Trial #1 (150/125/100 g/day) versus Control Trial #2, multiparious cows, at calving (Table 27))?
Its value is 42%.

And the “Non-Esterified Fatty Acid” value (Pre/Post Trial #2 (75/75/100 g/day in wk −3..−1/+1..+4/+5..+8), multiparious cows, day 0 (Calving))?
The value was 0.637^ab mEq/l.

What about the “Non-Esterified Fatty Acid” value (Pre/Post Trial #2 (75/75/100 g/day in wk −3..−1/+1..+4/+5..+8), multiparious cows, day +10) of the same compound?
Its value is 0.556 mEq/l.

What about the “Non-Esterified Fatty Acid” value (Pre/Post Trial #2 (75/75/100 g/day in wk −3..−1/+1..+4/+5..+8), multiparious cows, day −7) of the same compound?
Its value is 0.119 mEq/l.

And the “Non-Esterified Fatty Acid” value (Pre/Post Trial #2 (75/75/100 g/day in wk −3..−1/+1..+4/+5..+8), multiparious cows, day −21)?
Its value is 0.114 mEq/l.

What about the “lower concentration of NEFA in the blood” value (Pre/Post Trial #2 (so in the source) versus Control Trial #2, multiparious cows) of the same compound?
The value was 42%.

What about the “NEFA concentrations in blood compared with control” value (all three sorbitol feeding trials (Pre-Partum Trial #2, Pre/Post Trial #1, Pre/Post Trial #2), multiparous cows, the week before calving and at calving) of the same compound?
Its value is “lower than the NEFA concentrations in blood found during Control Trial #2”.

And the “lower concentration of NEFA in the blood” value (average of means of Pre-Partum Trial #2, Pre/Post Trial #1 and Pre/Post Trial #2 versus Control Trial #2, multiparious cows)?
The value was 28%.
